According to paper PMC4794209, “Preformulation Studies on Piperlongumine” (PLoS ONE, 2016):

Test: Aqueous stability studies (pH, temperature, ionic strength)
Type: physicochemical
Experimental: Aqueous stability studies for piperlongumine were conducted in three buffer systems: citrate (pH 3, 4, and 5); phosphate (pH 5, 6, and 7); and borate (pH 8 and 9). The ionic strength for the solutions was also varied, utilizing approximately 0.2 or 0.5 M. Each buffered sample was prepared with 10% acetonitrile as a cosolvent, then sealed and protected from light. Samples were stored at four different temperatures: 4°C (for samples at pH 3, 8 and 9 only), 26°C, 56°C and 67°C. Aliquots were regularly withdrawn for analysis. Changes in pH, if any, were also monitored. Stability studies were carried out for 18 months or until complete degradation occurred.
Apparent first order degradation was also obtained for the 4, […] and 67°C degradation profiles. Degradation rate constants, k-values, for piperlongumine were calculated using the slopes of the trend lines of each profile.
An Arrhenius plot of log k versus the reciprocal of the temperature (Fig 9) was utilized to determine the length of time it takes for piperlongumine to degrade 50% (T50) and 10% (T90). For a given pH the Arrhenius equation was utilized: Log k = log A − (Ea/2.303 RT) (1) Where: […]

[1] = pH 3, citrate, ionic strength 0.2, 25°C
[2] = pH 3, citrate, ionic strength 0.5, 25°C
[3] = pH 5, citrate, ionic strength 0.2, 25°C
[4] = pH 5, phosphate, ionic strength 0.2, 25°C
[5] = pH 5, phosphate, ionic strength 0.5, 25°C
[6] = pH 6, phosphate, ionic strength 0.2, 25°C
[7] = pH 7, phosphate, ionic strength 0.2, 25°C
[8] = pH 8, borate, ionic strength 0.2, 25°C
[9] = pH 9, borate, ionic strength 0.2, 25°C
[10] = pH 9, borate, ionic strength 0.5, 25°C

COc1cc(/C=C/C(=O)N2CCC=CC2=O)cc(OC)c1OC [piperlongumine, 1-[(2E)-3-(3,4,5-trimethoxyphenyl)prop-2-enoyl]-1,2,5,6-tetrahydropyridin-2-one]
Effect of ionic strength on degradation rate (0.2 M vs 0.5 M, pH 9, borate buffer): No difference in degradation rate | Kinetics of thermal degradation (56°C, several pH conditions): first order degradation kinetics | Effect of buffer species on degradation rate (citrate vs phosphate, pH 5): degradation rates are similar | Effect of ionic strength on stability half-life (increase from approximately 0.2 M to 0.5 M, pH 3 and pH 5): nominal effects | Ea (pH 3, citrate, ionic strength 0.2): 21.2 kcal/mol | T50 at 25°C [1]: 69.6 weeks | T90 at 25°C [1]: 10.6 weeks | k values 26°C (pH 3, citrate, ionic strength 0.2, 26°C): 0.0110 weeks^-1 | k values 56°C (pH 3, citrate, ionic strength 0.2, 56°C): 0.3057 weeks^-1 | k values 67°C (pH 3, citrate, ionic strength 0.2, 67°C): 0.7808 weeks^-1 | Ea (pH 3, citrate, ionic strength 0.5): 22.1 kcal/mol | T50 at 25°C [2]: 75.4 weeks | T90 at 25°C [2]: 11.5 weeks | k values 26°C (pH 3, citrate, ionic strength 0.5, 26°C): 0.0101 weeks^-1 | k values 56°C (pH 3, citrate, ionic strength 0.5, 56°C): 0.3413 weeks^-1 | k values 67°C (pH 3, citrate, ionic strength 0.5, 67°C): 0.8383 weeks^-1 | T90 without hydrogen peroxide (pH 3 citrate, 26°C, from Table 1): about 9.5 weeks | Ea (pH 4, citrate, ionic strength 0.2): 20.3 kcal/mol | T50 at 25°C (pH 4, citrate, ionic strength 0.2, 25°C): 112.9 weeks | k values 26°C (pH 4, citrate, ionic strength 0.2, 26°C): 0.0067 weeks^-1 | k values 56°C (pH 4, citrate, ionic strength 0.2, 56°C): 0.1739 weeks^-1 | k values 67°C (pH 4, citrate, ionic strength 0.2, 67°C): 0.3813 weeks^-1 | Ea (pH 5, citrate, ionic strength 0.2): 20.7 kcal/mol | T50 at 25°C [3]: 87.6 weeks | T90 at 25°C [3]: 13.3 weeks | k values 26°C (pH 5, citrate, ionic strength 0.2, 26°C): 0.0090 weeks^-1 | k values 56°C (pH 5, citrate, ionic strength 0.2, 56°C): 0.2045 weeks^-1 | k values 67°C (pH 5, citrate, ionic strength 0.2, 67°C): 0.6125 weeks^-1 | Ea (pH 5, phosphate, ionic strength 0.2): 21.5 kcal/mol | T50 at 25°C [4]: 101.5 weeks | T90 at 25°C [4]: 15.4 weeks | k values 26°C (pH 5, phosphate, ionic strength 0.2, 26°C): 0.0076 weeks^-1 | k values 56°C (pH 5, phosphate, ionic strength 0.2, 56°C): 0.2201 weeks^-1 | k values 67°C (pH 5, phosphate, ionic strength 0.2, 67°C): 0.5741 weeks^-1 | Ea (pH 5, phosphate, ionic strength 0.5): 20.3 kcal/mol | T50 at 25°C [5]: 88.7 weeks | T90 at 25°C [5]: 13.5 weeks | k values 26°C (pH 5, phosphate, ionic strength 0.5, 26°C): 0.0090 weeks^-1 | k values 56°C (pH 5, phosphate, ionic strength 0.5, 56°C): 0.1764 weeks^-1 | k values 67°C (pH 5, phosphate, ionic strength 0.5, 67°C): 0.5741 weeks^-1 | Ea (pH 6, phosphate, ionic strength 0.2): 22.7 kcal/mol | T50 at 25°C [6]: 75.5 weeks | T90 at 25°C [6]: 11.5 weeks | k values 26°C (pH 6, phosphate, ionic strength 0.2, 26°C): 0.0108 weeks^-1 | k values 56°C (pH 6, phosphate, ionic strength 0.2, 56°C): 0.2919 weeks^-1 | k values 67°C (pH 6, phosphate, ionic strength 0.2, 67°C): 1.1652 weeks^-1 | Ea (pH 7, phosphate, ionic strength 0.2): 22.5 kcal/mol | T50 at 25°C [7]: 16.0 weeks | T90 at 25°C [7]: 2.4 weeks | k values 26°C (pH 7, phosphate, ionic strength 0.2, 26°C): 0.0506 weeks^-1 | k values 56°C (pH 7, phosphate, ionic strength 0.2, 56°C): 1.3607 weeks^-1 | k values 67°C (pH 7, phosphate, ionic strength 0.2, 67°C): 5.1370 weeks^-1 | Ea (pH 8, borate, ionic strength 0.2): 19.8 kcal/mol | k values 4°C (pH 8, borate, ionic strength 0.2, 4°C): 0.0232 weeks^-1 | T50 at 25°C [8]: 2.0 weeks | T90 at 25°C [8]: 0.3 weeks | k values 26°C (pH 8, borate, ionic strength 0.2, 26°C): 0.5120 weeks^-1 | k values 56°C (pH 8, borate, ionic strength 0.2, 56°C): 7.2924 weeks^-1 | k values 67°C (pH 8, borate, ionic strength 0.2, 67°C): 20.933 weeks^-1 | Ea (pH 9, borate, ionic strength 0.2): 22.7 kcal/mol | k values 4°C (pH 9, borate, ionic strength 0.2, 4°C): 0.1182 weeks^-1 | T50 at 25°C [9]: 0.3 weeks | T90 at 25°C [9]: 0.05 weeks | k values 26°C (pH 9, borate, ionic strength 0.2, 26°C): 2.4375 weeks^-1 | Ea (pH 9, borate, ionic strength 0.5): 22.7 kcal/mol | k values 4°C (pH 9, borate, ionic strength 0.5, 4°C): 0.1171 weeks^-1 | T50 at 25°C [10]: 0.3 weeks | T90 at 25°C [10]: 0.05 weeks | k values 26°C (pH 9, borate, ionic strength 0.5, 26°C): 2.4372 weeks^-1 | pH of maximum stability (pH degradation rate profile, 26, 56, 67°C): ~4 | Stability in pH degradation rate profile (pH values ≥ 7 and 3, various temperatures): significant instability | Major degradation products (stability samples at pH 3, 5 and 8, LC-MS): 3,4,5- trimethoxycinnamic acid and piperlongumic acid
